Test results published in patent US20220323455A1, “FUSED HETEROCYCLIC DERIVATIVES AS ANTIVIRAL AGENTS” (priority 2019, published 2022).

Test system: HBV
Assay: HBV replication inhibition assay (BDNA assay) in HepG2.2.15 cells
Assay type: cell-based, Hepatitis B virus
Settings: 6 days, encapsidated HBV DNA in supernatant
How it was run: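 HepG2.2.15 cells were dosed with serially diluted compound (0.5% DMSO), with compound and medium renewed at day 3. Day-6 supernatants were DNase-treated and proteinase K-lysed, and encapsidated HBV DNA was quantified by branched-DNA assay. Percent inhibition was set against DMSO controls and EC50 obtained by nonlinear fit.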

[1] = Hepatitis B virus, HepG2.2.15, 144 h

Row | Compound | EC50 | EC50 [1]
1 | COC(=O)NCC1CCC(F)(F)c2c3c(nn2C1)C[C@@H](C)N(C(=O)Nc1ccnc(Br)c1F)C3 (single isomer, unassigned) [Example 106, Methyl (((3R,8R*)-2-((2-bromo-3-fluoropyridin-4-yl)carbamoyl)-11,11-difluoro-3-methyl-2,3,4,7,8,9,10,11-octahydro-1H-pyrido[4′,3′:3,4]pyrazolo[1,5-a]azepin-8-yl)methyl)carbamate] | 10 nM | –
2 | C[C@@H]1Cc2nn3c(c2CN1C(=O)Nc1ccc(F)c(C(F)(F)F)c1)C(F)(F)CCC(CO)C3 (single isomer, unassigned) [Example 80, (3R,8R*)-11,11-Difluoro-N-(4-fluoro-3-(trifluoromethyl)phenyl)-8-(hydroxymethyl)-3-methyl-3,4,8,9,10,11-hexahydro-1H-pyrido[4′,3′:3,4]pyrazolo[1,5-a]azepine-2(7H)-carboxamide] | 1 nM | –
3 | N#Cc1cc(NC(=O)N2CCc3nn4c(c3C2)C(F)(F)CCC(O)(COCC(F)F)C4)ccc1F (single isomer, unassigned) [Example 34, (S*)—N-(3-Cyano-4-fluorophenyl)-8-((2,2-difluoroethoxy)methyl)-11,11-difluoro-8-hydroxy-3,4,8,9,10,11-hexahydro-1H-pyrido[4′,3′:3,4]pyrazolo[1,5-a]azepine-2(7H)-carboxamide] | 17 nM | –
4 | C[C@@H]1Cc2nn3c(c2CN1C(=O)Nc1ccc(F)c(C#N)c1)C(F)(F)CCC(C(C)(C)O)C3 (single isomer, unassigned) [Example 103, (3R,8R*)—N-(3-Cyano-4-fluorophenyl)-11,11-difluoro-8-(2-hydroxypropan-2-yl)-3-methyl-3,4,8,9,10,11-hexahydro-1H-pyrido[4′,3′:3,4]pyrazolo[1,5-a]azepine-2(7H)-carboxamide] | 18 nM | –
5 | C#CC1(O)CCC(F)(F)c2c3c(nn2C1)CCN(C(=O)Nc1ccnc(C(F)F)c1F)C3 (single isomer, unassigned) [Example 64, (R*)—N-(2-(Difluoromethyl)-3-fluoropyridin-4-yl)-8-ethynyl-11,11-difluoro-8-hydroxy-3,4,89,10,11-hexahydro-1H-pyrido[4′,3′:3,4]pyrazolo[1,5-a]azepine-2(7H)-carboxamide] | – | 143 nM
6 | O=C(Nc1ccnc(Br)c1F)N1CCc2nn3c(c2C1)C(F)(F)CCC(CO)C3 (single isomer, unassigned) [Example 26, (R*)—N-(2-Bromo-3-fluoropyridin-4-yl)-11,11-difluoro-8-(hydroxymethyl)-3,4,8,9,10,11-hexahydro-1H-pyrido[4′,3′:3,4]pyrazolo[1,5-a]azepine-2(7H)-carboxamide] | 25 nM | –
7 | CCC1(O)CCC(F)(F)c2c3c(nn2C1)CCN(C(=O)Nc1ccc(F)c(C#N)c1)C3 (single isomer, unassigned) [Example 61, (S*)—N-(3-Cyano-4-fluorophenyl)-8-ethyl-11,11-difluoro-8-hydroxy-3,4,8,9,10,11-hexahydro-1H-pyrido[4′,3′:3,4]pyrazolo[1,5-a]azepine-2(7H)-carboxamide] | – | 40 nM
8 | C[C@@H]1Cc2nn3c(c2CN1C(=O)Nc1ccnc(C(F)F)c1F)C(F)(F)CCC(O)(CC#N)C3 (single isomer, unassigned) [Example 92, (3R,8R*)-8-(Cyanomethyl)-N-(2-(difluoromethyl)-3-fluoropyridin-4-yl)-11,11-difluoro-8-hydroxy-3-methyl-3,4,8,9,10,11-hexahydro-1H-pyrido[4′,3′:3,4]pyrazolo[1,5-a]azepine-2(7H)-carboxamide] | 191 nM | –
9 | O=C(Nc1ccc(F)c(C(F)(F)F)c1)N1CCc2nn3c(c2C1)C(F)(F)CCC(COCC(F)F)C3 (single isomer, unassigned) [Example 28, (S*)-8-((2,2-Difluoroethoxy)methyl)-11,11-difluoro-N-(4-fluoro-3-(trifluoromethyl)phenyl)-3,4,8,9,10,11-hexahydro-1H-pyrido[4′,3′:3,4]pyrazolo[1,5-a]azepine-2(7H)-carboxamide] | 22 nM | –
10 | C[C@@H]1Cc2nn3c(c2CN1C(=O)Nc1ccnc(Br)c1F)C(F)=CC(O)CC3 (single isomer, unassigned) [Example 124, (3R,9S*)—N-(2-Bromo-3-fluoropyridin-4-yl)-11-fluoro-9-hydroxy-3-methyl-3,4,8,9-tetrahydro-1H-pyrido[4′,3:3,4]pyrazolo[1,5-a]azepine-2(7H)-carboxamide] | 26 nM | –
11 | O=C(Nc1ccnc(Br)c1F)N1CCc2nn3c(c2C1)C(F)(F)CC(O)CC3 (single isomer, unassigned) [Example 137, (R*)—N-(2-Bromo-3-fluoropyridin-4-yl)-11,11-difluoro-9-hydroxy-3,4,8,9,10,11-hexahydro-1H-pyrido[4′,3′:3,4]pyrazolo[1,5-a]azepine-2(7H)-carboxamide] | 2 nM | –
12 | C[C@@H]1Cc2nn3c(c2CN1C(=O)Nc1ccnc(Br)c1F)C(F)(F)CCC(F)(CO)C3 (single isomer, unassigned) [Example 112, (3R,8S*)—N-(2-Bromo-3-fluoropyridin-4-yl)-8,11,11-trifluoro-8-(hydroxymethyl)-3-methyl-3,4,8,9,10,11-hexahydro-1H-pyrido[4′,3′:3,4]pyrazolo[1,5-a]azepine-2(7H)-carboxamide] | 45 nM | –
13 | C[C@@H]1Cc2nn3c(c2CN1C(=O)Nc1ccnc(Br)c1F)C(F)(F)CCC(C(C)(C)O)C3 (single isomer, unassigned) [Example 102, (3R,8S*)—N-(2-Bromo-3-fluoropyridin-4-yl)-1111-difluoro-8-(2-hydroxypropan-2-yl)-3-methyl-3,4,8,9,10,11-hexahydro-1H-pyrido[4′,3′:3,4]pyrazolo[1,5-a]azepine-2(7H)-carboxamide] | 88 nM | –
14 | C[C@@H]1Cc2nn3c(c2CN1C(=O)Nc1ccnc(C(F)F)c1F)C(F)(F)CCC(CO)C3 (single isomer, unassigned) [Example 82, (3R,8R*)—N-(2-(Difluoromethyl)-3-fluoropyridin-4-yl)-11,11-difluoro-8-(hydroxymethyl)-3-methyl-3,4,8,9,10,11-hexahydro-1H-pyrido[4′,3′:3,4]pyrazolo[1,5-a]azepine-2(7H)-carboxamide] | 1 nM | –
15 | N#Cc1cc(NC(=O)N2CCc3nn4c(c3C2)C(F)(F)CCC(CO)C4)ccc1F (single isomer, unassigned) [Example 19, (S*)—N-(3-Cyano-4-fluorophenyl)-11,11-difluoro-8-(hydroxymethyl)-3,4,8,9,10,11-hexahydro-1H-pyrido[4′,3′:3,4]pyrazolo[1,5-a]azepine-2(7H)-carboxamide] | 4 nM | –
16 | O=C(Nc1ccc(F)c(C(F)(F)F)c1)N1CCc2nn3c(c2C1)C(F)(F)CCC(CO)C3 (single isomer, unassigned) [Example 24, (R*)-11,11-Difluoro-N-(4-fluoro-3-(trifluoromethyl)phenyl)-8-(hydroxymethyl)-3,4,8,91011-hexahydro-1H-pyrido[4′,3′:3,4]pyrazolo[1,5-a]azepine-2(7H)-carboxamide] | 35 nM | –
17 | C[C@@H]1Cc2nn3c(c2CN1C(=O)Nc1ccc(F)c(C#N)c1)C(F)(F)CCC(CO)C3 (single isomer, unassigned) [Example 79, (3R,8R*)—N-(3-Cyano-4-fluorophenyl)-11,11-difluoro-8-(hydroxymethyl)-3-methyl-3,4,8,9,10,11-hexahydro-1H-pyrido[4′,3′:3,4]pyrazolo[1,5-a]azepine-2(7H)-carboxamide] | – | 1 nM
18 | C[C@@H]1Cc2nn3c(c2CN1C(=O)Nc1ccnc(Br)c1F)C(F)(F)CCC(CO)C3 (single isomer, unassigned) [Example 77, (3R,8S*)—N-(2-Bromo-3-fluoropyridin-4-yl)-11,11-difluoro-8-(hydroxymethyl)-3-methyl-3,4,8,9,10,11-hexahydro-1H-pyrido[4′,3′:3,4]pyrazolo[1,5-a]azepine-2(7H)-carboxamide] | 14 nM | –
19 | CC1Cc2nn3c(c2CN1C(=O)Nc1ccc(F)c(C#N)c1)C(F)(F)C[C@H](CO)CC3 (some centres unmarked) [Example 131] | – | 3 nM
20 | C[C@@H]1Cc2nn3c(c2CN1C(=O)Nc1ccc(F)c(C#N)c1)C(F)(F)CCC(O)(COCC(F)F)C3 (single isomer, unassigned) [Example 94, (3R,8S*)—N-(3-Cyano-4-fluorophenyl)-8-((2,2-difluoroethoxy)methyl)-11,11-difluoro-8-hydroxy-3-methyl-3,4,8,9,10,11-hexahydro-1H-pyrido[4′,3′:3,4]pyrazolo[1,5-a]azepine-2(7H)-carboxamide] | 15 nM | –
21 | N#CCC1(O)CCC(F)(F)c2c3c(nn2C1)CCN(C(=O)Nc1ccnc(Br)c1F)C3 (single isomer, unassigned) [Example 41, (R*)—N-(2-Bromo-3-fluoropyridin-4-yl)-8-(cyanomethyl)-11,11-difluoro-8-hydroxy-3,4,89,10,11-hexahydro-1H-pyrido[4′,3′:3,4]pyrazolo[1,5-a]azepine-2(7H)-carboxamide] | 52 nM | –
22 | C[C@@H]1Cc2nn3c(c2CN1C(=O)Nc1ccc(F)c(C#N)c1)C(F)(F)CC(O)(CO)CC3 (single isomer, unassigned) [Example 125, (3R,9R*)—N-(3-Cyano-4-fluorophenyl)-11,11-difluoro-9-hydroxy-9-(hydroxymethyl)-3-methyl-3,4,8,9,10,11-hexahydro-1H-pyrido[4′,3′:3,4]pyrazolo[1,5-a]azepine-2(7H)-carboxamide] | 14 nM | –
23 | C[C@@H]1Cc2nn3c(c2CN1C(=O)Nc1ccc(F)c(C#N)c1)C(F)(F)CCC(C(C)(C)O)C3 (single isomer, unassigned) [Example 101, (3R,8S*)—N-(3-Cyano-4-fluorophenyl)-11,11-difluoro-8-(2-hydroxypropan-2-yl)-3-methyl-3,4,8,9,10,11-hexahydro-1H-pyrido[4′,3′:3,4]pyrazolo[1,5-a]azepine-2(7H)-carboxamide] | 44 nM | –
